{"source": "the NIST ThermoML archive (doi:10.1021/je500110d)", "key": {"[1]": {"test": "Molar enthalpy of transition or fusion", "details": "Crystal; DSC"}, "[2]": {"details": "298.15 K, Liquid, Gas chromatography"}, "[3]": {"details": "298.15 K, Metastable liquid, Gas chromatography"}}, "note": "Numbers after ± are expanded uncertainties.", "data": [{"smiles": "CCCCOC(=O)c1ccccc1C(=O)OCc1ccccc1", "note": "[benzyl butyl 1,2-benzenedioate]", "values": [{"measurement": "vapor or sublimation pressure", "setting": "[2]", "result": "2e-07 ± 1e-07", "unit": "kPa"}]}, {"smiles": "CCCCC(CC)COC(=O)c1ccc(C(=O)OCC(CC)CCCC)cc1", "note": "(configuration not stated) [bis(2-ethylhexyl) terephthalate]", "values": [{"measurement": "vapor or sublimation pressure", "setting": "[2]", "result": "5.4e-09 ± 1e-08", "unit": "kPa"}]}, {"smiles": "CCCCOC(=O)c1ccccc1C(=O)OCCCC", "note": "[dibutyl phthalate]", "values": [{"measurement": "vapor or sublimation pressure", "setting": "333.2 K, Liquid, Transpiration method", "result": "0.000224 ± 9e-06", "unit": "kPa"}, {"measurement": "vapor or sublimation pressure", "setting": "338.4 K, Liquid, Transpiration method", "result": "0.000365 ± 1.4e-05", "unit": "kPa"}, {"measurement": "vapor or sublimation pressure", "setting": "343.4 K, Liquid, Transpiration method", "result": "0.000586 ± 2.3e-05", "unit": "kPa"}, {"measurement": "vapor or sublimation pressure", "setting": "348 K, Liquid, Transpiration method", "result": "0.000838 ± 3.3e-05", "unit": "kPa"}, {"measurement": "vapor or sublimation pressure", "setting": "353.6 K, Liquid, Transpiration method", "result": "0.0014 ± 5e-05", "unit": "kPa"}, {"measurement": "vapor or sublimation pressure", "setting": "358.7 K, Liquid, Transpiration method", "result": "0.00215 ± 8e-05", "unit": "kPa"}, {"measurement": "vapor or sublimation pressure", "setting": "363.7 K, Liquid, Transpiration method", "result": "0.00316 ± 0.00012", "unit": "kPa"}, {"measurement": "vapor or sublimation pressure", "setting": "368.7 K, Liquid, Transpiration method", "result": "0.00459 ± 0.00018", "unit": "kPa"}, {"measurement": "vapor or sublimation pressure", "setting": "373.6 K, Liquid, Transpiration method", "result": "0.00675 ± 0.00026", "unit": "kPa"}, {"measurement": "vapor or sublimation pressure", "setting": "378.5 K, Liquid, Transpiration method", "result": "0.00948 ± 0.00037", "unit": "kPa"}]}, {"smiles": "O=C(OC1CCCCC1)c1ccccc1C(=O)OC1CCCCC1", "note": "[dicyclohexyl phthalate]", "values": [{"measurement": "Molar enthalpy of transition or fusion", "setting": "[1]", "result": "7.72 ± 0.693", "unit": "kcal/mol"}, {"measurement": "vapor or sublimation pressure", "setting": "[3]", "result": "8e-08 ± 2e-08", "unit": "kPa"}, {"measurement": "Triple point temperature", "setting": "Crystal, DTA", "result": "336.5 ± 0.7", "unit": "K"}]}, {"smiles": "COC(=O)c1ccc(C(=O)OC)cc1", "note": "[dimethyl 1,4-benzenedicarboxylate]", "values": [{"measurement": "vapor or sublimation pressure", "setting": "[3]", "result": "2.14e-07 ± 3.1e-08", "unit": "kPa"}]}, {"smiles": "CCCCCCCCOC(=O)c1ccccc1C(=O)OCCCCCCCC", "note": "[dioctyl 1,2-benzenedicarboxylate]", "values": [{"measurement": "vapor or sublimation pressure", "setting": "[2]", "result": "5.5e-09 ± 1.1e-08", "unit": "kPa"}]}]}
